Data set [1] in a line: Hum Liver Assay (human liver S9 fraction). The data set is classed as in vitro ADME. An excerpt:
This example illustrates that different prodrugs of (S)-1-phenyl-2-(pyridin-2-yl)ethanamine, wherein R1 is C1-6 alkylC(O)O(C1-6 alkoxy), may be used to achieve differing rates of conversion (i.e., slow or rapid) to (S)-1-phenyl-2-(pyridin-2-yl)ethanamine to ascertain a suitable PK profile. […] Further, this Example illustrates that there is no expected loss in oral exposure when a prodrug is converted to free base. Conversion of a prodrug wherein R1 is C1-6 alkylC(O)O(C1-6 alkoxy) to (S)-1-phenyl-2-(pyridin-2-yl)ethanamine is expected to occur via an initial enzymatic hydrolysis of a functional group, such as an ester, followed by a spontaneous conversion to (S)-1-phenyl-2-(pyridin-2-yl)ethanamine. Enzymes involved are expected to be several non-specific, high capacity esterases, which can be shown by inhibiting the conversion with a non-selective esterase inhibitor but not inhibiting the conversion using selective inhibitors. Such esterases are expected to be distributed throughout the human body. Human Intestinal Fluid (HIF), human liver S9 fraction and human whole blood have been used to examine the pharmacokinetic properties of the prodrugs of (S)-1-phenyl-2-(pyridin-2-yl)ethanamine as well as the formation rate and formation extent of the (S)-1-phenyl-2-(pyridin-2-yl)ethanamine in different bodily compartments. The formation rate of (S)-1-phenyl-2-(pyridin-2-yl)ethanamine from different prodrugs of (S)-1-phenyl-2-(pyridin-2-yl)ethanamine differs markedly in all tested assays, as shown in Table 1.
Human Intestinal Fluids (HIF), Human Liver and Human Blood assays used to generate the results shown in Table 1 have been described in Malmborg J & Ploeger B A, J Pharmacol Toxicol Methods (2013) May-June 67(3) 203-13, which is incorporated by reference herein.
(§1) [drawing 48] is expected to occur via enzymatic hydrolysis at the proline C-terminus, releasing a dipeptide and (S)-1-phenyl-2-(pyridin-2-yl)ethanamine. The enzyme involved is expected to be dipeptidyl peptidase IV (DPPIV), which can be shown by inhibiting the conversion with a selective inhibitor of this enzyme. DPPIV is expected to be distributed throughout the human body. Human Intestinal Fluid (HIF), human liver S9 fraction and human whole blood have been used to examine the pharmacokinetic properties of prodrugs of (S)-1-phenyl-2-(pyridin-2-yl)ethanamine as well as the formation rate and formation extent of the (S)-1-phenyl-2-(pyridin-2-yl)ethanamine in different bodily compartments. Caco-2 cells have been used to evaluate the permeability and absorption potential of the prodrugs of (S)-1-phenyl-2-(pyridin-2-yl)ethanamine. The formation rate of (S)-1-phenyl-2-(pyridin-2-yl)ethanamine from different prodrugs of (S)-1-phenyl-2-(pyridin-2-yl)ethanamine differed in the tested assays, especially in human blood, as shown in Table 2.

The subject of another data set is Seizures in dog. The data set is described as follows: Seizures in dog (NOEL/LOEL) after oral gavage. The data set is classed as in vivo. The conditions noted are these: for LOEL Seizures in dog (Dose administered) / NOEL Seizures in dog (Dose administered): oral gavage, dose reflects free base concentration. As for the experimental part:
This example illustrates that when doses of prodrug of (S)-1-phenyl-2-(pyridin-2-yl)ethanamine dihydrochloride (Example 5) and (S)-1-phenyl-2-(pyridin-2-yl)ethanamine dihydrochloride were administered to dogs, the risk of seizures, as represented by NOEL and LOEL, was less with the prodrug.
(S)-1-phenyl-2-(pyridin-2-yl)ethanamine dihydrochloride and vehicle were administered once per day via oral gavage (water). Formulations were prepared twice, once weekly. Dosing formulations were stored and refrigerated (2-8° C.) in amber glass containers until required for dosing. A range of concentrations of (S)-1-phenyl-2-(pyridin-2-yl)ethanamine dihydrochloride in vehicle were prepared in order to keep the dose volume for all doses (1 mL/kg). Individual doses were based on the most recent body weights of dogs used in the study.
A prodrug of (S)-1-phenyl-2-(pyridin-2-yl)ethanamine as fumarate salt (example 5) and vehicle were administered once per day for 14 days via oral gavage at approximately the same time each day (±1 hour), (vehicle is 0.3 M gluconic acid pH 3.0). A range of concentrations of prodrug of (S)-1-phenyl-2-(pyridin-2-yl)ethanamine as fumarate salt in vehicle were prepared (for example 3, 10 and 30 mg/mL of prodrug of (S)-1-phenyl-2-(pyridin-2-yl)ethanamine) in order to keep the dose volume for all doses (2 mL/kg). The dosing formulations were warmed to room temperature by stirring for at least 30 minutes prior to dosing and continuously throughout the administration procedure. Individual doses were based on the most recent body weights of dogs used in the study.
Table 4 Compound 1 is (S)-1-phenyl-2-(pyridin-2-yl)ethanamine. […] In each case the highest blood concentration (Cmax) of free base (S)-1-phenyl-2-(pyridin-2-yl)ethanamine is measured. In the first case, the free base (S)-1-phenyl-2-(pyridin-2-yl)ethanamine is generated directly from Compound 1, administered as the dihydrochloride salt. In the second case, the free base (S)-1-phenyl-2-(pyridin-2-yl)ethanamine is generated via in vivo conversion from a prodrug of Compound 1, administered as the fumarate salt. The NOEL for seizures was higher when the prodrug of (S)-1-phenyl-2-(pyridin-2-yl)ethanamine as fumarate salt was administered compared to when (S)-1-phenyl-2-(pyridin-2-yl)ethanamine as dihydrochloride salt was administered.

A further data set is described as follows: Caco-2 permeability. The data set is classed as in vitro ADME. Particulars: human; Caco-2 cells.
Source text: as §1

Data set [2] is described as follows: Conversion of prodrug at increasing initial concentrations in human intestinal fluid (LC-UV). The data set is classed as in vitro ADME. Particulars: initial concentrations 33, 100, 300 and 600 μmol/L, FIG. 1a and 1b. As for the experimental part:
FIGS. 1a and 1b illustrates the conversion of prodrug of (S)-1-phenyl-2-(pyridin-2-yl)ethanamine (Example 5) to (S)-1-phenyl-2-(pyridin-2-yl)ethanamine during an incubation period in human intestinal fluid. In particular, FIG. 1a illustrates prodrug of (S)-1-phenyl-2-(pyridin-2-yl)ethanamine (Example 5) concentration (initial concentrations of 30, 100, 300 and 600 as it transforms to (S)-1-phenyl-2-(pyridin-2-yl)ethanamine, during an incubation period in human intestinal fluid. FIG. 1b illustrates (S)-1-phenyl-2-(pyridin-2-yl)ethanamine concentration, as it converts from prodrug of (S)-1-phenyl-2-(pyridin-2-yl)ethanamine (Example 5, initial concentrations of 30, 100, 300 and 600 μM), during an incubation period in human intestinal fluid. […]
Stock solutions of prodrug of (S)-1-phenyl-2-(pyridin-2-yl)ethanamine (0.33, 1, 3 and 6 mmol/L) were prepared by adding a volume (8.25, 25, 75 and 150 μL) of 20 mmol/L solution of prodrug of (S)-1-phenyl-2-(pyridin-2-yl)ethanamine dissolved in DMSO, to FaSSIF-v2 (491.75, 475, 425 and 350 μL). […] The conversion rate from prodrug to (S)-1-phenyl-2-(pyridin-2-yl)ethanamine was determined by fitting the measured prodrug and (S)-1-phenyl-2-(pyridin-2-yl)ethanamine concentrations versus time.

Setting [3] is: human, s9, Table 1, read-out: Prodrug Clint Hum Liver S9.
Setting [4] is: human, s9, Table 2, read-out: Prodrug Clint Hum Liver S9.

The values that follow come from patent US10815199B2, “NMDA antagonist prodrugs” (priority 2013, dated 2020).

Where a name gives a salt, the structure may show the parent alone. Read-outs that look alike come from different tables or passages of the source.

In the case of `CC(C)C(=O)OC(OC(=O)N[C@@H](Cc1ccccn1)c1ccccc1)C(C)C` (single isomer, unassigned) [Example 2 Diastereomer 2], the microsomal CLint in data set [1] (setting [3]) turned out to be 1900 µL/min/mg.
In the case of `CC(C)[C@H](N)C(=O)N1CCC[C@H]1C(=O)N[C@@H](Cc1ccccn1)c1ccccc1` [Prodrug of Compound 1, as fumarate salt, (S)-1-((S)-2-Amino-3-methylbutanoyl)-N-((S)-1-phenyl-2-(pyridin-2-yl)ethyl)pyrrolidine-2-carboxamide fumerate], in the data set on Seizures in dog, the “LOEL Seizures in dog (Dose administered)” value was “(60 mg/kg)” and the “NOEL Seizures in dog (Dose administered)” value is “(20 mg/kg)”.
Take `CC(OC(=O)N[C@@H](Cc1ccccn1)c1ccccc1)OC(=O)C(C)C` (single isomer, unassigned) [Example 4 Diastereomer 1]: the microsomal CLint in data set [1] (setting [3]) came to 1200 µL/min/mg.
Turning to `N[C@@H](Cc1c[nH]cn1)C(=O)N1CCC[C@H]1C(=O)N[C@@H](Cc1ccccn1)c1ccccc1` [Example 7, (S)-1-((S)-2-Amino-3-(1H-imidazol-4-yl)propanoyl)-N—((S)-1-phenyl-2-(pyridin-2-yl)ethyl)pyrrolidine-2-carboxamide], the microsomal CLint in data set [1] (setting [4]) stood at 33 µL/min/mg. The compound further displayed a Papp in the data set “Caco-2 permeability” of 16 nm/s.
With `Cl.Cl.N[C@@H](Cc1ccccn1)c1ccccc1` [Compound 1, as di-HCl salt, (S)-1-phenyl-2-(pyridin-2-yl)ethanamine dihydrochloride, reference compound], in the data set with Seizures in dog, the “LOEL Seizures in dog (Dose administered)” value is recorded as “(20 mg/kg)” and the “NOEL Seizures in dog (Dose administered)” value was “(10 mg/kg)”.
With `CC(C)[C@H](N)C(=O)N1CCC[C@H]1C(=O)N[C@@H](Cc1ccccn1)c1ccccc1` [Example 5, (S)-1-((S)-2-Amino-3-methylbutanoyl)-N—((S)-1-phenyl-2-(pyridin-2-yl)ethyl)pyrrolidine-2-carboxamide], the “increase in concentration of (S)-1-phenyl-2-(pyridin-2-yl)ethanamine with increasing doses of prodrug” value in data set [2] is on record as “less than proportional increases”. Besides, in the data set with Seizures in dog (dogs, prodrug versus (S)-1-phenyl-2-(pyridin-2-yl)ethanamine dihydrochloride), the “risk of seizures, as represented by NOEL and LOEL” value was “less”. In addition, the microsomal CLint in data set [1] (setting [4]) was 120 µL/min/mg. The compound further had an apparent permeability (Papp) in “Caco-2 permeability” of 14 nm/s.
With `CC(C)C(=O)OCOC(=O)N[C@@H](Cc1ccccn1)c1ccccc1` [Example 1, (S)-(1-Phenyl-2-(pyridin-2-yl)ethylcarbamoyloxy)methyl isobutyrate], the microsomal CLint in data set [1] (setting [3]) came out at 2300 µL/min/mg.
For the compound `N=C(N)NCCC[C@H](N)C(=O)N1CCC[C@H]1C(=O)N[C@@H](Cc1ccccn1)c1ccccc1` [Example 12, 2-[(2S)-2-{[(2S)-1-[(2S)-2-Azaniumyl-5-{[azaniumyl(iminiumyl)methyl]amino}pentanoyl]-pyrrolidin-2-yl]formamido}-2-phenylethyl]pyridin-1-ium tetrachloride], the microsomal CLint in data set [1] (setting [4]) is 69 µL/min/mg. Further, the Papp in “Caco-2 permeability” amounted to 86 nm/s.
For the compound `N[C@@H](Cc1ccc(O)cc1)C(=O)N1CCC[C@H]1C(=O)N[C@@H](Cc1ccccn1)c1ccccc1` [Example 8, 2-((S)-2-((S)-1-((S)-2-Amino-3-(4-hydroxyphenyl)propanoyl)pyrrolidine-2-carboxamido)-2-phenylethyl)pyridine dihydrochloride], the microsomal CLint in data set [1] (Table 2, read-out: Prodrug Clint Hum Liver S9) was found to be 51 µL/min/mg. The apparent permeability (Papp) in “Caco-2 permeability” turned out to be 32 nm/s.
Take `NCCCC[C@H](N)C(=O)N1CCC[C@H]1C(=O)N[C@@H](Cc1ccccn1)c1ccccc1` [Example 6, (S)-1-((S)-2,6-Diaminohexanoyl)-N—((S)-1-phenyl-2-(pyridin-2-yl)ethyl)pyrrolidine-2-carboxamide]: in data set [1] (setting [4]), the microsomal CLint turned out to be 73 µL/min/mg. The Papp in “Caco-2 permeability” came to 0.7 nm/s.
